Experimental data published in patent US5663168A, “Use of compositions for combating tumour diseases” (CIBA-Geigy Corporation, priority 1993, dated 1997).

System: human mammary carcinoma of the MCF-7 line
Assay: Inhibition of the growth of a human mammary carcinoma in the mouse model
Type: in vivo, Balb/c nu/nu-mice
Procedure: 2×6 female Balb/c nu/nu-mice (Bomholtgard, oestrogen-stimulated with 5 mg of oestradiol in a perforated plastics tube "Silastic®" (Dow Chemical, Michigan, USA)) are implanted with tumours by subcutaneous transplantation of fragments of human mammary carcinoma (about 25 mg) of the MCF-7 line (American Type Culture Collection, Maryland, USA; see H. D. Soule et al., J. Nat. Cancer Inst. 51, 1409-1416 (1973)). After the tumours have grown to a volume of about 30 to 100 mm^3 (after 13 days), 6 mice (test group) are each given twice dally over a period of 25 days a dose of 50 mg/kg of Boc-Phe[C]Phe-(L)-Val-(L)-Phe-morpholin-4-ylamide (dissolved in a concentration of 2 mg/ml in a 5% solution of dimethyl sulfoxide and 20% hydroxypropyl-β-cyclodextrin in water, prepared by dissolution of the test compound in dimethyl sulfoxide and dilution with aqueous hydroxypropyl-β-cyclodextrin solution). […] After 25 days (50 administrations) the following tumour volumes (mean value) are determined:
The tumour growth is determined by measuring the diameter along the longitudinal axis of the tumour (L) and perpendicular thereto (D) (in a living animal by means of a calliper gauge). The tumour volumes are calculated in accordance with the formula π×L×D^2 /6 (Evans, B. D., et al., Brit. J. Cancer 45, 466-468 (1982)).

Substance: Boc-Phe[C]Phe-(L)-Val-(L)-Phe-morpholin-4-ylamide
- tumour growth in comparison with the control group (MCF-7 tumours in female Balb/c nu/nu-mice, 50 mg/kg orally twice daily for 25 days): marked reduction in tumour growth
- tumour volume (mean value) (subcutaneous MCF-7 tumour fragments in oestrogen-stimulated female Balb/c nu/nu-mice, 50 mg/kg orally twice daily, after 25 days (50 administrations), placebo control 0.96 cm^3): 0.30 cm^3
